From patent publication US20250161307A1, “PYRAZOLOPYRIMIDINES AS MODULATORS OF SPERMINE OXIDASE” (Janssen Pharmaceutica NV, priority 2022, published 2025)

What was measured:
SMOX [1] = target: T1, SMOX (Homo sapiens (Human), UniProt Q9NWM0); experiment: Cellular Thermal Shift Assay (CETSA) with alphaLISA detection of intact SMOX in A549 cells; assay type: cell-based; settings: 1 hour compound incubation at 37° C., heated to 55° C. for 5 minutes
From the text: The Cellular Thermal Shift Assay (CETSA) is a biophysical assay based on the principle of ligand-induced thermal stabilization of target proteins, meaning that a protein denaturing temperature will change upon ligand interaction. Thus, by heating samples (i.e. cells, ex vivo samples) to different temperatures, and quantifying conformationally intact proteins we can detect compound-protein interactions after compound treatment. CETSA allows direct monitoring of ligand binding to a specific target (target engagement). In our study, we have developed a suitable detection system that will detect intact SMOX using the alphaLISA. […] The detection of compound -SMOX ligand binding is performed using A549 cells. This adenocarcinoma human alveolar basal epithelial cell line expresses high levels of SMOX. Their use has been widely reported in the literature with respect to the investigation of the SMOX pathway. Using SMOX high-expressing cells with CETSA and alphaLISA systems provides the optimal platform for screening small molecules for SMOX inhibition.
A549 cells were seeded at a density of 0.05-0.1×10^6 cells/mL in T175 flasks and cultured in 25 mL of culture medium consisting in RPMI 1640 medium (Gibco) supplemented with 10% fetal bovine serum (Gibco). Cells were passaged twice per week and used for CETSA assays before reaching confluency. One day prior to the CETSA cells were seeded in 384-well white assay plates (Corning) at 15000 cells per well. Briefly, cells were washed with PBS (Life Technologies Europe BV) and dissociated by adding 2 mL TrypLE™ Select (Life Technologies Europe BV). After 5 min at 37° C., cells were resuspended in culture medium, counted using a ViCell XR cell counter (ViCell) and seeded in the 384-well plates.
Compounds were pre-diluted in PBS to a final concentration of […] and 1% DMSO and serially diluted in PBS 1% DMSO. For compound-cell incubation, medium in the 384 well plates was replaced with 30 μL of serially diluted compounds. After incubation at 37° C. for 1 hour the liquid was removed and plates were heated to 55° C. for 5 minutes and then transferred to ice for 5 minutes. After the cooling step, cells were lysed by adding 15 μL 1× alphaLISA-buffer (Perkin Elmer) containing anti-SMOX monoclonal antibody #2 and anti-SMOX Fab-fragment #33 mixture at a concentration of 5 and 0.5 nM respectively. After one hour at RT, 5 μL anti-6×His alphaLISA acceptor beads (50 mg/L, AL128C, Perkin Elmer) were added to the wells followed by an additional incubation of one hour at RT. Then 5 μL anti-rabbit IgG alpha donor beads (200 mg/L was added to the wells. After one hour incubation at RT the alpha signal was read using an alpha compatible reader. MDL75257 (M2949, Sigma) was used as positive control for compound-SMOX interaction. Compound-SMOX interaction is detected through the comparison of the high alpha signal of the negative control with the much lower signal of the wells that contain SMOX binding compounds.

hPAOX = hPAOX (Homo sapiens (Human), UniProt Q6QHF9); experiment: Human PAOX assay (HyPerBlu chemiluminescent detection of hydrogen peroxide); assay type: biochemical; settings: 60 pM recombinant PAOX, 20 μM N-acetylspermine substrate
Method in brief: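 His-tagged recombinant PAOX expressed in sf9 insect cells was used at 60 pM, with 20 μM N-acetylspermine as substrate. Hydrogen peroxide formed by the reaction was detected by chemiluminescence from a boronate probe (HyPerBlu). Inhibition appears as lower luminescence.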

SMOX [2] = target: T1, SMOX; experiment: Human SMOX assay (HyPerBlu chemiluminescent detection of hydrogen peroxide); assay type: biochemical; settings: 2.5 nM full length hSMOX, spermine substrate, 1 h at room temperature, luminescence read; read-out: SMOx_IC50
Method in brief: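 Full-length N-His human SMOX (2.5 nM, E. coli-expressed) was incubated 1 h at room temperature with 30 µM spermine, 11-point compound dilutions and 1.25% DMSO in pH 7.4 HEPES/NaCl/EGTA buffer. H2O2 was detected by HyPerBlu chemiluminescence after 30 min, and IC50 came from dose–response fits.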

T1 sequence (Q9NWM0 whole entry): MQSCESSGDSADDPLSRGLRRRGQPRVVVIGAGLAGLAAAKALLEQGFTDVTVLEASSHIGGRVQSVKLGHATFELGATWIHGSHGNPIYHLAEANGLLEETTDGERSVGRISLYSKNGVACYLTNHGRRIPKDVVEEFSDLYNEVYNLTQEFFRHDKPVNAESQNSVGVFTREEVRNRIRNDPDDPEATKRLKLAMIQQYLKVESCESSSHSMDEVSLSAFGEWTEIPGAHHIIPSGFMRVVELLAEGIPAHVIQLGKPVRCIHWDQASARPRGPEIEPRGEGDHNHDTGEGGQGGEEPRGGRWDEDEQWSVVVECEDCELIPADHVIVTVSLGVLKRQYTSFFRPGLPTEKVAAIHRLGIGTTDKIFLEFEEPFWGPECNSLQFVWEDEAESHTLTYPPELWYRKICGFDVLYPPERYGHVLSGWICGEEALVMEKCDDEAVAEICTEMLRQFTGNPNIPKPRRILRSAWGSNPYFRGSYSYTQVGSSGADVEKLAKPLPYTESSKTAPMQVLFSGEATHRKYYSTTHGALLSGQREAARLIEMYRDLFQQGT
Sequence of hPAOX (Q6QHF9 whole entry): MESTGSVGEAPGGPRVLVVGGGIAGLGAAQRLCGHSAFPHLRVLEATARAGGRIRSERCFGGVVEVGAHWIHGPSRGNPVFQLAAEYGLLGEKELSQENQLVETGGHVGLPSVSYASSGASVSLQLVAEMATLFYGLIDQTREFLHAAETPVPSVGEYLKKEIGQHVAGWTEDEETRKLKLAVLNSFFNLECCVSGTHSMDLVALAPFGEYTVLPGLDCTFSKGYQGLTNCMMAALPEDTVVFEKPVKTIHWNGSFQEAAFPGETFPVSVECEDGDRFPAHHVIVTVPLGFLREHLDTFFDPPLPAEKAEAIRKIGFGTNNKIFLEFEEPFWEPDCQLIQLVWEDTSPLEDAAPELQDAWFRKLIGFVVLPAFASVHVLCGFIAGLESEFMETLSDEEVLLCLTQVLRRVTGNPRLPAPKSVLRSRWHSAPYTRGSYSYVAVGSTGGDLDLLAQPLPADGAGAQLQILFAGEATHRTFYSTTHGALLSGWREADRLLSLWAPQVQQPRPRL

Row | Compound | SMOx % recovery CETSA (SMOX [1]) [%] | IC50 (hPAOX) [nM] | IC50 (SMOX [2]) [nM]
1 | CN1CC(NC(=O)c2cc3nc(-c4ccccc4)cc(-c4ccccc4)n3n2)C1 [Example 23, N-(1-Methylazetidin-3-yl)-5,7-diphenylpyrazolo[1,5-a]pyrimidine-2-carboxamide] | 52 | 960 | 49
2 | CN1CCC(C)(CNC(=O)c2nn3c(-c4ccccc4)cc(-c4ccccc4)nc3c2I)C1 (stereo not shown) [Example 48, N-((1,3-Dimethylpyrrolidin-3-yl)methyl)-3-iodo-5,7-diphenylpyrazolo[1,5-a]pyrimidine-2-carboxamide] | – | 7590 | 698
3 | O=C(NCCCN1CCC1)c1cc2nc(-c3ccccc3)cc(-c3ccccc3)n2n1 [Example 35, N-(3-(Azetidin-1-yl)propyl)-5,7-diphenylpyrazolo[1,5-a]pyrimidine-2-carboxamide] | – | 362 | 523
4 | CN1CC(NC(=O)c2nn3c(-c4ccccc4)cc(-c4ccccc4)nc3c2C#N)C1 [Example 53, 3-Cyano-N-(1-methylazetidin-3-yl)-5,7-diphenylpyrazolo[1,5-a]pyrimidine-2-carboxamide] | – | 13300 | 273
5 | O=C(NCCCCN1CCCC1)c1cc2nc(-c3ccccc3)cc(-c3ccccc3)n2n1 [Example 30, 5,7-Diphenyl-N-(4-(pyrrolidin-1-yl)butyl)pyrazolo[1,5-a]pyrimidine-2-carboxamide] | – | 129 | 297
6 | O=C(NCCCn1ccnc1)c1cc2nc(-c3ccccc3)cc(N3CCC3)n2n1 [Example 56, N-(3-(1H-Imidazol-1-yl)propyl)-7-(azetidin-1-yl)-5-phenylpyrazolo[1,5-a]pyrimidine-2-carboxamide] | – | 3730 | 874
7 | O=C(NCCCNc1ccccn1)c1cc2nc(-c3ccccc3)cc(-c3ccccc3)n2n1 [Example 26, 5,7-Diphenyl-N-(3-(pyridin-2-ylamino)propyl)pyrazolo[1,5-a]pyrimidine-2-carboxamide] | – | 22 | 324
8 | CN(CCCNC(=O)c1cc2nc(-c3ccccc3)cc(-c3ccccc3)n2n1)c1ccccn1 [Example 32, N-(3-(Methyl(pyridin-2-yl)amino)propyl)-5,7-diphenylpyrazolo[1,5-a]pyrimidine-2-carboxamide] | – | 6220 | 850
9 | CN1CC(NC(=O)c2nn3c(-c4ccccc4)cc(-c4ccccc4)nc3c2F)C1 [Example 52, 3-Fluoro-N-(1-methylazetidin-3-yl)-5,7-diphenylpyrazolo[1,5-a]pyrimidine-2-carboxamide] | – | 1920 | 215
10 | O=C(NCCc1ncc[nH]1)c1cc2nc(-c3ccccc3)cc(-c3ccccc3)n2n1 [Example 25, N-(2-(1H-Imidazol-2-yl)ethyl)-5,7-diphenylpyrazolo[1,5-a]pyrimidine-2-carboxamide] | – | 35 | 253
11 | CN1CC(C)(NC(=O)c2cc3nc(-c4ccccc4)cc(-c4ccccc4)n3n2)C1 [Example 42, N-(1,3-Dimethylazetidin-3-yl)-5,7-diphenylpyrazolo[1,5-a]pyrimidine-2-carboxamide] | – | 6780 | 2210
12 | CN1CCC(NC(=O)c2cc3nc(-c4ccccc4)cc(-c4ccccc4)n3n2)C1 (stereo not shown) [Example 6, N-(1-Methylpyrrolidin-3-yl)-5,7-diphenylpyrazolo[1,5-a]pyrimidine-2-carboxamide] | – | 4950 | 230
13 | CN1CC(CNC(=O)c2cc3nc(-c4ccccc4)cc(-c4ccccc4)n3n2)C1 [Example 29, N-((1-Methylazetidin-3-yl)methyl)-5,7-diphenylpyrazolo[1,5-a]pyrimidine-2-carboxamide] | – | 1760 | 480

The remaining lines, values ahead:

Row | SMOx % recovery CETSA (SMOX [1]) [%] | IC50 (hPAOX) [nM] | IC50 (SMOX [2]) [nM] | Compound
14 | 52 | 2920 | 58 | O=C(NCCCn1ccnc1)c1cc2nc(-c3ccccc3)cc(C3CCCCO3)n2n1 (stereo not shown) [Example 111, N-(3-(1H-imidazol-1-yl)propyl)-5-phenyl-7-(tetrahydro-2H-pyran-2-yl)pyrazolo[1,5-a]pyrimidine-2-carboxamide]
15 | 24 | 1270 | 22 | O=C(NCCCn1ccnc1)c1cc2nc(-c3ccccc3)cc(C3CCCCC3)n2n1 [Example 107, N-(3-(1H-imidazol-1-yl)propyl)-7-cyclohexyl-5-phenylpyrazolo[1,5-a]pyrimidine-2-carboxamide]
16 | 0 | 1570 | 102 | O=C(NCCCn1ccnc1)c1cc2nc(-c3ccccc3)cc(-c3ccc(O)cc3)n2n1 [Example 88, N-(3-(1H-imidazol-1-yl)propyl)-7-(4-hydroxyphenyl)-5-phenylpyrazolo[1,5-a]pyrimidine-2-carboxamide]
17 | 0 | 123 | 122 | Cc1cccc(-c2cc(-c3ccccc3)nc3cc(C(=O)NCCCn4ccnc4)nn23)c1 [Example 81, N-(3-(1H-imidazol-1-yl)propyl)-5-phenyl-7-(m-tolyl)pyrazolo[1,5-a]pyrimidine-2-carboxamide]
18 | – | 10000 | 1550 | CN1CC(NC(=O)c2cc3nc(-c4ccccn4)cc(-c4ccccc4)n3n2)C1 [Example 102, N-(1-methylazetidin-3-yl)-7-phenyl-5-(pyridin-2-yl)pyrazolo[1,5-a]pyrimidine-2-carboxamide]
19 | – | 547 | 3120 | CN1CC(NC(=O)c2cc3nc(-c4ccccc4C(F)(F)F)cc(-c4ccccc4)n3n2)C1 [Example 103, N-(1-methylazetidin-3-yl)-7-phenyl-5-(2-(trifluoromethyl)phenyl)pyrazolo[1,5-a]pyrimidine-2-carboxamide]
20 | – | 3600 | 177 | CN1CC(NC(=O)c2cc3nc(-c4ccccc4)cc(N4CCC[C@@H](O)C4)n3n2)C1 [Example 67, (R)-7-(3-hydroxypiperidin-1-yl)-N-(1-methylazetidin-3-yl)-5-phenylpyrazolo[1,5-a]pyrimidine-2-carboxamide]
21 | – | > 31200 | 20600 | O=C(NCCN1CCOCC1)c1cc2nc(-c3ccccc3)cc(-c3ccccc3)n2n1 [Example 122, N-(2-morpholinoethyl)-5,7-diphenylpyrazolo[1,5-a]pyrimidine-2-carboxamide]
22 | – | 3930 | 486 | O=C(NCCCn1ccnc1)c1cc2nc(-c3ccccc3)cc(N3CC4CC4C3)n2n1 (stereo not shown) [Example 61, N-(3-(1H-Imidazol-1-yl)propyl)-7-(3-azabicyclo[3.1.0]hexan-3-yl)-5-phenylpyrazolo[1,5-a]pyrimidine-2-carboxamide]
23 | – | 3610 | 4570 | O=C(NCCCn1ccnc1)c1cc2nc(-c3ccccc3)cc(-c3ccncc3)n2n1 [Example 97, N-(3-(1H-imidazol-1-yl)propyl)-5-phenyl-7-(pyridin-4-yl)pyrazolo[1,5-a]pyrimidine-2-carboxamide]
24 | – | 2290 | 1200 | O=C(NCCCn1ccnc1)c1cc2nc(-c3ccccc3)cc(C3CC3)n2n1 [Example 113, N-(3-(1H-imidazol-1-yl)propyl)-7-cyclopropyl-5-phenylpyrazolo[1,5-a]pyrimidine-2-carboxamide]
25 | – | 643 | 996 | CN1CC(NC(=O)c2cc3nc(-c4ccccc4)cc(-c4ncccn4)n3n2)C1 [Example 93, N-(1-methylazetidin-3-yl)-5-phenyl-7-(pyrimidin-2-yl)pyrazolo[1,5-a]pyrimidine-2-carboxamide]
